Source: ChEMBL document CHEMBL5137068, “Discovery of Hexahydrofuro[3,2-b]furans as New Kinase-Selective and Orally Bioavailable JAK3 Inhibitors for the Treatment of Leukemia Harboring a JAK3 Activating Mutant” (J Med Chem, 2022)

Assays:
[1] = tested on: BaF3; assay: cells; settings: Mus musculus, BaF3, 72 h
Description: Antiproliferative activity against mouse BaF3 parent cell measured after 72 hrs by CCK-8 assay

[2] = tested on: BaF3; assay: cells; settings: Mus musculus, BaF3, 72 h; remark: listed apart in the source
[3] = tested on: BaF3; assay: cells; settings: Mus musculus, BaF3, 72 h; remark: listed apart in the source
[4] = tested on: BaF3; assay: cells; settings: Mus musculus, BaF3, 72 h; remark: listed apart in the source
[5] = target: T1, Tyrosine-protein kinase JAK3 (Homo sapiens, UniProt P52333)
T1 sequence (P52333 whole entry): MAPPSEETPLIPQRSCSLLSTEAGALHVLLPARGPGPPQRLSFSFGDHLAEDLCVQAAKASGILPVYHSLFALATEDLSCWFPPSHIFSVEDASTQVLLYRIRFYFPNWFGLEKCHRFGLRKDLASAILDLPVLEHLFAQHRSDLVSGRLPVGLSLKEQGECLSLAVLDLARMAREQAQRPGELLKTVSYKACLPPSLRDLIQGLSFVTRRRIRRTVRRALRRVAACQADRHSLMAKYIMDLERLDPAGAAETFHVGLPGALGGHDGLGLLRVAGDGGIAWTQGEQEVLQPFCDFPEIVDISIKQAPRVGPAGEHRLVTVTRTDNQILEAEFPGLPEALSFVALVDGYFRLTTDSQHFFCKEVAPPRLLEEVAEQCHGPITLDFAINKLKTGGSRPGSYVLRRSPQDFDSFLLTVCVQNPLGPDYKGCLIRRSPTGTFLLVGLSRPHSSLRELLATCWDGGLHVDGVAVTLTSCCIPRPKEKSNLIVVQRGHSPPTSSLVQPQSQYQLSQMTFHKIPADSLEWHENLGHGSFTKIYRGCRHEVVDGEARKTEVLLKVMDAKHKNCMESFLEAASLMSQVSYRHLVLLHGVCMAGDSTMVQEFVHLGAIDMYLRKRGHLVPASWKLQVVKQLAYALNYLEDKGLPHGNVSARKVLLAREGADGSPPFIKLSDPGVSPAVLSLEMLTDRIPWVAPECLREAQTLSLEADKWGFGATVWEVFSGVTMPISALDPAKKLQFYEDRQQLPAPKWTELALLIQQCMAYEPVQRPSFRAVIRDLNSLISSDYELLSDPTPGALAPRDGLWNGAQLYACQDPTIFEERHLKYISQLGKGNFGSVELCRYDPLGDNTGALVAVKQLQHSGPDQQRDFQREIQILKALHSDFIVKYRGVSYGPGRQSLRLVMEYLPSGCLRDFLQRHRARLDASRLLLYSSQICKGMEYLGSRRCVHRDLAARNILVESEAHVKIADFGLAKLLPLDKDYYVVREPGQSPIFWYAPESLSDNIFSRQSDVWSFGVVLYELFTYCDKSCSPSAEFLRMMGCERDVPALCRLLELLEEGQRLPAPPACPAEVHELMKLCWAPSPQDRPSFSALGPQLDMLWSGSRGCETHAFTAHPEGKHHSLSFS
Description: Inhibition of GST tagged recombinant human JAK3 expressed in baculovirus infection system by FRET assay

[6] = target: Tyrosine-protein kinase JAK1 (Homo sapiens, UniProt P23458)
[7] = target: Tyrosine-protein kinase JAK2 (Homo sapiens, UniProt O60674)
Description: Inhibition of GST tagged recombinant human JAK2 expressed in baculovirus infection system by FRET assay

[8] = target: Non-receptor tyrosine-protein kinase TYK2 (Homo sapiens, UniProt P29597)
Description: Inhibition of human TYK2 by FRET assay

[9] = tested on: U-937; assay: cells; settings: Homo sapiens, U-937, 72 h
[10] = Half life in 12 hr fasted SPF Sprague-Dawley rat at 5 mg/kg, iv upon 2 hrs fasting post-administration measured upto 24 hrs; assay type: ADME, organism-based; settings: in vivo
[11] = Half life in 12 hr fasted SPF Sprague-Dawley rat at 15 mg/kg, po upon 2 hrs fasting post-administration measured upto 24 hrs; assay type: ADME, organism-based; settings: in vivo
[12] = Cmax in 12 hr fasted SPF Sprague-Dawley rat at 5 mg/kg, iv upon 2 hrs fasting post-administration measured upto 24 hrs; assay type: ADME, organism-based; set-up: dose 5 mg/kg, time < 24 hrs, route iv; settings: in vivo
[13] = Cmax in 12 hr fasted SPF Sprague-Dawley rat at 15 mg/kg, po upon 2 hrs fasting post-administration measured upto 24 hrs; assay type: ADME, organism-based; set-up: time < 24 hrs, dose 15 mg/kg, route po; settings: in vivo
[14] = AUC(0 to infinity) in 12 hr fasted SPF Sprague-Dawley rat at 15 mg/kg, po upon 2 hrs fasting post-administration upto 24 hrs; assay type: ADME, organism-based; set-up: dose 15 mg/kg, time < 24 hrs, route po; settings: in vivo
[15] = AUC(0 to infinity) in 12 hr fasted SPF Sprague-Dawley rat at 5 mg/kg, iv upon 2 hrs fasting post-administration measured upto 24 hrs; assay type: ADME, organism-based; set-up: dose 5 mg/kg, time < 24 hrs, route iv; settings: in vivo
[16] = Clearance in 12 hr fasted SPF Sprague-Dawley rat at 5 mg/kg, iv upon 2 hrs fasting post-administration measured upto 24 hrs; assay type: ADME, organism-based; settings: in vivo
[17] = Oral bioavailability in 12 hr fasted SPF Sprague-Dawley rat at 15 mg/kg upon 2 hrs fasting post-administration measured upto 24 hrs; assay type: ADME, organism-based; settings: in vivo
[18] = Metabolic stability in rat liver microsome assessed as half life preincubated for 5 mins followed by NADPH addition measured upto 45 mins by LC/MS analysis; assay type: ADME; settings: liver microsomes, time < 50 min

Chain of Tyrosine-protein kinase JAK2 (O60674 whole entry): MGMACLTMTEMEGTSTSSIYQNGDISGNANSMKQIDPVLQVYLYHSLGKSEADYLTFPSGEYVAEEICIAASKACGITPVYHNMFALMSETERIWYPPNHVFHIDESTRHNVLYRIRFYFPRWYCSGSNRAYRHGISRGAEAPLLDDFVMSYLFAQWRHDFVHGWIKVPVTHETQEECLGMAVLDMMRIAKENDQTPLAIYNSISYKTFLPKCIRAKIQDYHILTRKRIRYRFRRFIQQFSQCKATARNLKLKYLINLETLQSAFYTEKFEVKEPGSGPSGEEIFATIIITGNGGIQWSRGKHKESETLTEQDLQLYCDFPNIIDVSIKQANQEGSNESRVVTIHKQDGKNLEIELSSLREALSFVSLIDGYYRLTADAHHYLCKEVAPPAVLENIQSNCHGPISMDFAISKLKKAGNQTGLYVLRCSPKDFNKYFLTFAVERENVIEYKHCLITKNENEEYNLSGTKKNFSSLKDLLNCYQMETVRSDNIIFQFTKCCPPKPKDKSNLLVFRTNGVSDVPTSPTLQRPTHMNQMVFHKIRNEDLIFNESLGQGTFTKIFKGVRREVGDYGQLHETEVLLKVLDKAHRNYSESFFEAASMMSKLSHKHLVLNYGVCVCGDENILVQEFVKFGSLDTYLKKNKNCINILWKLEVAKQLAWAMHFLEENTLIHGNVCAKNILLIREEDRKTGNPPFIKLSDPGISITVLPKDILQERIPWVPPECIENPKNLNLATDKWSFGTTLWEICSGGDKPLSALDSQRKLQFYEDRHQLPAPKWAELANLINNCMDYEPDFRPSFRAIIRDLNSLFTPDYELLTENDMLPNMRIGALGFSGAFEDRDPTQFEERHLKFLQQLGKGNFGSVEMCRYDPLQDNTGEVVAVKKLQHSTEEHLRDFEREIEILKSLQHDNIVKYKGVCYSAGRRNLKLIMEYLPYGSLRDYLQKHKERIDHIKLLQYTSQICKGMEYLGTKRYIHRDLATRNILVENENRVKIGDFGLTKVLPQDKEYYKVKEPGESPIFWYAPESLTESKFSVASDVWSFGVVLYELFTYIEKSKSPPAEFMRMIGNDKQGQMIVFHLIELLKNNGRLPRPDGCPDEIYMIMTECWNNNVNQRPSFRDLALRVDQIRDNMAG
Chain of Tyrosine-protein kinase JAK1 (P23458 whole entry): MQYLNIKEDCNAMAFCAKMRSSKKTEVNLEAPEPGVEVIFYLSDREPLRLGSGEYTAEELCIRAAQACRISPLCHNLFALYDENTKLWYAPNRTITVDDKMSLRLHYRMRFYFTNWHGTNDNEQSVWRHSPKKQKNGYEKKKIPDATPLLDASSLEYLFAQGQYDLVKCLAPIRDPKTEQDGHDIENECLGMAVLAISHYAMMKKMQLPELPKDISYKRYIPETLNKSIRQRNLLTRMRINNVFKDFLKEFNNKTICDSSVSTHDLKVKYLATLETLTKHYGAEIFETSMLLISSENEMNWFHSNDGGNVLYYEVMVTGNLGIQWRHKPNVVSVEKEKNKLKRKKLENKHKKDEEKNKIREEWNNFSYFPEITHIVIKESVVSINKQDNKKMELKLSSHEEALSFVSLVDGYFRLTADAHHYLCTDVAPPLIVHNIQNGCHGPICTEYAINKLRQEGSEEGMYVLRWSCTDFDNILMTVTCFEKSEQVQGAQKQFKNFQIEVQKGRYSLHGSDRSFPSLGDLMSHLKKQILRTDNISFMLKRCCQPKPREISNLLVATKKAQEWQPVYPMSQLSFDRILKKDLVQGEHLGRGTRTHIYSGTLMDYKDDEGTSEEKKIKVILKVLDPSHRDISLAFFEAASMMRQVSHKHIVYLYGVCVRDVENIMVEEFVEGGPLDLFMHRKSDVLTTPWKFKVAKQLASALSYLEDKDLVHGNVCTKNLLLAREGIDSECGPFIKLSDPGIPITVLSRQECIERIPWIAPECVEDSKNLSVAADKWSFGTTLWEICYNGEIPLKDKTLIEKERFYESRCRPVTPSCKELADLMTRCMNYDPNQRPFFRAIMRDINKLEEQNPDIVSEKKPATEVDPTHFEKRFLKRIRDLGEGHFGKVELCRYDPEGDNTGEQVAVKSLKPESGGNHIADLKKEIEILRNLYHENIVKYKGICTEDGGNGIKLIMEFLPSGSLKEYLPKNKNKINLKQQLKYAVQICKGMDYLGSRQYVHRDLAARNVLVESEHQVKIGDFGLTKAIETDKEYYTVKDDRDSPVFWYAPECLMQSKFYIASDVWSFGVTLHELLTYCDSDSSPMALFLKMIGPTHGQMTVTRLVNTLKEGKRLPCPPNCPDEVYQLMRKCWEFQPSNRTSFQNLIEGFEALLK
Chain of Non-receptor tyrosine-protein kinase TYK2 (P29597 whole entry): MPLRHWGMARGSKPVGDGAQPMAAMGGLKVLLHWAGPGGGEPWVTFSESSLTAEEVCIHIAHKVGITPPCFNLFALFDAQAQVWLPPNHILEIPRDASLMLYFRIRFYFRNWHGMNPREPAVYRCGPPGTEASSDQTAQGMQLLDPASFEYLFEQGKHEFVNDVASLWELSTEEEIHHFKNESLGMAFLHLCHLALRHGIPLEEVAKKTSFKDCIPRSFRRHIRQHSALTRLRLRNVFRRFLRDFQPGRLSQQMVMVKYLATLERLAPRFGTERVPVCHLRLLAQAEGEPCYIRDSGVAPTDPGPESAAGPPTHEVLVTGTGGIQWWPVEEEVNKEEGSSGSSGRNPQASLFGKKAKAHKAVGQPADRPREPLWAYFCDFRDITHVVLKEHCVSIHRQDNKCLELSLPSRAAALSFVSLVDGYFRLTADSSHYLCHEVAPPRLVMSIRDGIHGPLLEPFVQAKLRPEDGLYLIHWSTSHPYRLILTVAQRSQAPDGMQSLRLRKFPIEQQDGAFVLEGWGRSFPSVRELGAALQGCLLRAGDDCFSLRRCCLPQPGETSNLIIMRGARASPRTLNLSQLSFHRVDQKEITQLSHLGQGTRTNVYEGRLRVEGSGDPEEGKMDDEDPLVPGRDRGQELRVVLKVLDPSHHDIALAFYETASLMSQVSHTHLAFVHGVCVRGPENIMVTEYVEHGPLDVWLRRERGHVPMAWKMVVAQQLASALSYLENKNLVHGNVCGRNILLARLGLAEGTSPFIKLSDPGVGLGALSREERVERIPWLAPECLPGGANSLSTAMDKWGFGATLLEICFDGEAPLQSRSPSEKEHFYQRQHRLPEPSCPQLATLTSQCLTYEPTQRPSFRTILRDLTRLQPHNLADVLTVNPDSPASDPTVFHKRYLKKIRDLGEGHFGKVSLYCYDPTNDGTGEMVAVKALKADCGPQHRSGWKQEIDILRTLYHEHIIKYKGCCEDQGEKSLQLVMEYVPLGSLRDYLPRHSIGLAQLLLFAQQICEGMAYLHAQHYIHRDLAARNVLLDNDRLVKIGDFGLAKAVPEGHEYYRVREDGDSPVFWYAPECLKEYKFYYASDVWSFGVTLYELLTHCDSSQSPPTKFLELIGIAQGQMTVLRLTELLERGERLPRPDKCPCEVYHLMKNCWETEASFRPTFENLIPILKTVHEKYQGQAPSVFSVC

CN1CCN(C2CCN(c3ccc(Nc4ncc(Cl)c(O[C@@H]5CO[C@H]6[C@@H]5OC[C@H]6O)n4)cc3Cl)CC2)CC1
IC50 [1]: 1380 nM | IC50 [2]: > 10000 nM | IC50 [3]: > 10000 nM | IC50 [4]: 1650 nM

C=CC(=O)Nc1cc(Nc2ncc(Cl)c(O[C@@H]3CO[C@H]4[C@@H]3OC[C@H]4O)n2)ccc1N1CCOCC1
IC50 [5]: 1.6 nM

C=CC(=O)Nc1cccc(Nc2ncc(Cl)c(O[C@@H]3CO[C@H]4[C@@H]3OC[C@H]4O)n2)c1
IC50 [5]: 1.2 nM | IC50 [6]: 556 nM | IC50 [7]: 1400 nM | IC50 [8]: 94 nM

C=CC(=O)Nc1cc(Nc2ncc(Cl)c(O[C@@H]3CO[C@H]4[C@@H]3OC[C@H]4F)n2)ccc1N(C)CCN(C)C
IC50 [5]: 1.3 nM | IC50 [1]: 519 nM | IC50 [2]: 461 nM | IC50 [3]: 416 nM | IC50 [4]: 46.4 nM | IC50 [9]: 50.3 nM

C=CC(=O)N1C[C@H](Nc2ncnc3[nH]ccc23)CC[C@@H]1C [RITLECITINIB]
IC50 [1]: > 10000 nM | IC50 [2]: > 10000 nM | IC50 [3]: > 10000 nM | IC50 [4]: 28.1 nM | IC50 [9]: 19.5 nM

C=CC(=O)Nc1cc(Nc2ncc(Cl)c(O[C@@H]3CO[C@H]4[C@@H]3OC[C@H]4O)n2)ccc1N1C[C@H]2C[C@@H]1CN2C
IC50 [5]: 1.5 nM

C=CC(=O)Nc1cc(Nc2ncc(Cl)c(O[C@@H]3CO[C@H]4[C@@H]3OC[C@H]4O)n2)ccc1N(C)CCN(C)C
half-life [10]: 0.8 h | half-life [11]: 1.02 h | Cmax [12]: 440 ng/mL | Cmax [13]: 79.1 ng/mL | AUC(0-inf) [14]: 105 ng·h/mL | AUC(0-inf) [15]: 280 ng·h/mL | CL [16]: 299.15% | bioavailability [17]: 12.4% | half-life at […] [18]: 2 h | IC50 [1]: 102 nM | IC50 [2]: 133 nM | IC50 [3]: 149 nM | IC50 [4]: 24.9 nM | IC50 [9]: 15.2 nM

C=CC(=O)Nc1cc(Nc2ncc(Cl)c(O[C@@H]3CO[C@H]4[C@@H]3OC[C@H]4O)n2)ccc1N1CCC(N2CCN(C)CC2)CC1
IC50 [5]: 1.8 nM | IC50 [6]: 1540 nM | IC50 [7]: 1030 nM | IC50 [8]: 369 nM | IC50 [1]: 40.4 nM | IC50 [2]: 122 nM | IC50 [3]: 46.3 nM | IC50 [4]: 20.1 nM | IC50 [9]: 35.9 nM

C=CC(=O)Nc1cc(Nc2ncc(Cl)c(O[C@@H]3CO[C@H]4[C@@H]3OC[C@H]4O)n2)ccc1N1CCC(N(C)C)C1 (stereo partly drawn)
IC50 [5]: 1.9 nM

C=CC(=O)Nc1cc(Nc2ncc(Cl)c(O[C@@H]3CO[C@H]4[C@@H]3OC[C@@H]4F)n2)ccc1N(C)CCN(C)C
IC50 [1]: 476 nM | IC50 [2]: 435 nM | IC50 [3]: 418 nM | IC50 [4]: 88.6 nM | IC50 [9]: 40.7 nM

C#CCCN(C)CCN(C)c1ccc(Nc2ncc(Cl)c(O[C@@H]3CO[C@H]4[C@@H]3OC[C@H]4OC)n2)cc1NC(=O)C=C
IC50 [5]: 1.7 nM

C=CC(=O)Nc1cc(Nc2ncc(Cl)c(O[C@@H]3CO[C@H]4[C@@H]3OC[C@H]4OC(C)C)n2)ccc1N(C)CCN(C)C
IC50 [5]: 1.3 nM | IC50 [1]: 205 nM | IC50 [2]: 336 nM | IC50 [3]: 166 nM | IC50 [4]: 179 nM | IC50 [9]: 44 nM

C=CC(=O)Nc1cc(Nc2ncc(Cl)c(O[C@@H]3CO[C@H]4[C@@H]3OCC4(F)F)n2)ccc1N(C)CCN(C)C
IC50 [5]: 1.2 nM | IC50 [1]: 214 nM | IC50 [2]: 180 nM | IC50 [3]: 188 nM | IC50 [4]: 56.4 nM | IC50 [9]: 33.8 nM

C=CC(=O)Nc1cc(Nc2ncc(Cl)c(O[C@@H]3CO[C@H]4[C@@H]3OC[C@H]4OCC)n2)ccc1N(C)CCN(C)C
IC50 [1]: 161 nM | IC50 [2]: 313 nM | IC50 [3]: 137 nM | IC50 [4]: 108 nM | IC50 [9]: 30 nM
